Consider two compounds from patent US7838534B2, “Quinuclidine derivatives as M3 antagonists” (Chiesi Farmaceutici S.p.A., priority 2006, dated 2010).

Molecules are shown by their SMILES.

The series can be described thus: lung retention after intratracheal administration (lung homogenate, plasma). The class given is in vivo. The note with it: guinea pig lung; for C48L/C0.5L (amount in the lung 48 hours vs 0.5 hours after administration): intratracheal administration. An excerpt: MRTL and […]/C0.5L (%) are two meaningful and predictive parameters of the duration of a drug's effect after single dose pulmonary administration.

Regarding `CC(C)[N+]1(C)[C@@H]2CC[C@H]1CC(OC(=O)C(CO)c1ccccc1)C2.[Br-]` (stereo partly drawn) [ipratropium bromide], the “C48L/C0.5L (amount in the lung 48 hours vs 0.5 hours after administration)” value was determined as 0.3%.
Regarding `C[N+]1(C)[C@@H]2C[C@@H](OC(=O)C(O)(c3cccs3)c3cccs3)C[C@H]1[C@@H]1O[C@@H]12` [tiotropium bromide], the “C48L/C0.5L (amount in the lung 48 hours vs 0.5 hours after administration)” value amounted to 2.3%. Also, the MRT (lung homogenate, inhaled or intranasal, intratracheal 10 nmol/kg, read-out: MRTL (Mean Residence Time in the Lung)) is 7.1 h.
